In brackets after ≈: the same amount, converted by molar mass.
Tests used:
[1] = system: A-375; test: Antiproliferative activity against human A-375 cells assessed as reduction in cell growth by MTT assay; assay type: functional, cell-based
[2] = system: BGC-823; test: Antiproliferative activity against human BGC-823 cells assessed as reduction in cell growth by MTT assay; assay type: functional, cell-based
[3] = system: MCF7; test: Antiproliferative activity against human MCF7 cells assessed as reduction in cell growth by MTT assay; assay type: functional, cell-based
[4] = system: MIA PaCa-2; test: Antiproliferative activity against human MIA PaCa-2 cells assessed as reduction in cell growth by MTT assay; assay type: functional, cell-based
[5] = system: HCT-116; test: Antiproliferative activity against human HCT-116 cells assessed as reduction in cell growth by MTT assay; assay type: functional, cell-based
[6] = Cytotoxicity against mouse HL-1 cells assessed as cell viability incubated for 24 hrs by CytoTox-Glo luminescence assay relative to control; assay type: toxicity, cell-based
[7] = system: HT-29; test: Antiproliferative activity against human HT-29 cells assessed as reduction in cell viability incubated for 72 hrs by MTT assay; assay type: functional, cell-based; conditions: HT-29, 72 h
[8] = system: A549; test: Cytotoxicity against human A549 cells assessed as reduction in cell growth measured after 24 hrs by MTT assay; assay type: functional, cell-based; conditions: A549, 24 h
[9] = target: Fibroblast growth factor receptor 1 (Homo sapiens, UniProt P11362); test: Inhibition of human recombinant FGFR1 (461 to 768 residues) expressed in Escherichia coli BL21 Gold(DE3) cells by spectrophotometer method
Sequence of Fibroblast growth factor receptor 1 (P11362 whole entry, the tested form may be a part): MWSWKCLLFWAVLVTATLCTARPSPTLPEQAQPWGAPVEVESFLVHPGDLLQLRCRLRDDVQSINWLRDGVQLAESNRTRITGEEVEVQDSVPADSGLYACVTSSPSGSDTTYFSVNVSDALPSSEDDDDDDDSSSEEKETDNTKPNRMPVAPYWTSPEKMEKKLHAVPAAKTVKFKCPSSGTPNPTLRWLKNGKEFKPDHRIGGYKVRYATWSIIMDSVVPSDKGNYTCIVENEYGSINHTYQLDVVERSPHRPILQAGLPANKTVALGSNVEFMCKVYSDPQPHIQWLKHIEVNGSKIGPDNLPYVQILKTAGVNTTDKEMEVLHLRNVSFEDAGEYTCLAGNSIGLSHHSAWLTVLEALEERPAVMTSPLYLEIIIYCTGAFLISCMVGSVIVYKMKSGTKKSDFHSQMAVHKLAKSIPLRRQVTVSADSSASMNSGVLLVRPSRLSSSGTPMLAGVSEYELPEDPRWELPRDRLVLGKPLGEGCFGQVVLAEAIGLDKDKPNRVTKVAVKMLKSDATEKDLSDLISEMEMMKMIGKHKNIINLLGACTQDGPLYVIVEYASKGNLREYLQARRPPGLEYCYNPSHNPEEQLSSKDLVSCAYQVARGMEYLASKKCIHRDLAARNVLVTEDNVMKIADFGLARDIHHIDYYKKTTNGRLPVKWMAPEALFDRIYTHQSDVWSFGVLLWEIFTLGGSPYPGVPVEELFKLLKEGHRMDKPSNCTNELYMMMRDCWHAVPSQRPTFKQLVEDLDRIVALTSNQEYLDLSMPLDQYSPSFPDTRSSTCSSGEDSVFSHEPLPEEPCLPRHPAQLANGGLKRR

[10] = system: KG-1; test: Antiproliferative activity against FGFR1-translocated human KG-1 cells assessed as reduction in cell viability incubated for 72 hrs by CCK-8 assay; assay type: functional, cell-based; conditions: KG-1, 72 h
[11] = system: CCRF-CEM; test: Growth inhibition of human CCRF-CEM cells; assay type: functional, cell-based; conditions: pooled result: one value given for 60 cell lines, strains, targets or settings
[12] = system: Huh-7; test: Antiproliferative activity against human Huh-7 cells assessed as reduction in cell viability incubated for 48 hrs by MTT assay; assay type: functional, cell-based; conditions: Huh-7, 48 h
[13] = system: Caco-2; test: Growth inhibition of human Caco-2 cells measured after 48 hrs by SRB assay; assay type: functional
[14] = system: MCF7; test: Growth inhibition of human MCF7 cells measured after 48 hrs by SRB assay; assay type: functional
[15] = system: NCI-H460; test: Growth inhibition of human NCI-H460 cells measured after 48 hrs by SRB assay; assay type: functional
[16] = Cytotoxicity against African green monkey Vero cells incubated for 48 hrs by SRB colorimetric assay; assay type: toxicity, cell-based, Chlorocebus sabaeus
[17] = system: MCF7; test: Antiproliferative activity against human MCF7 cells assessed as inhibition of cell growth at 0.1 uM incubated for 24 hrs by SRB assay relative to control; assay type: functional; set-up: scale not given: the % may be the effect or the level left
[18] = system: MDA-MB-231; test: Antiproliferative activity against human MDA-MB-231 cells assessed as inhibition of cell growth at 0.1 uM incubated for 24 hrs by SRB assay relative to control; assay type: functional; set-up: scale not given: the % may be the effect or the level left
[19] = system: HCT-116; test: Antiproliferative activity against human HCT-116 cells assessed as inhibition of cell growth at 0.1 uM incubated for 24 hrs by SRB assay relative to control; assay type: functional; set-up: scale not given: the % may be the effect or the level left
[20] = system: MCF7; test: Antiproliferative activity against human MCF7 cells assessed as reduction in cell viability incubated for 48 hrs by MTT assay; assay type: functional, cell-based; conditions: MCF7, 48 h
[21] = target: Histone deacetylase 1 (Homo sapiens, UniProt Q13547); test: Inhibition of human recombinant HDAC1
Sequence of Histone deacetylase 1 (Q13547 whole entry): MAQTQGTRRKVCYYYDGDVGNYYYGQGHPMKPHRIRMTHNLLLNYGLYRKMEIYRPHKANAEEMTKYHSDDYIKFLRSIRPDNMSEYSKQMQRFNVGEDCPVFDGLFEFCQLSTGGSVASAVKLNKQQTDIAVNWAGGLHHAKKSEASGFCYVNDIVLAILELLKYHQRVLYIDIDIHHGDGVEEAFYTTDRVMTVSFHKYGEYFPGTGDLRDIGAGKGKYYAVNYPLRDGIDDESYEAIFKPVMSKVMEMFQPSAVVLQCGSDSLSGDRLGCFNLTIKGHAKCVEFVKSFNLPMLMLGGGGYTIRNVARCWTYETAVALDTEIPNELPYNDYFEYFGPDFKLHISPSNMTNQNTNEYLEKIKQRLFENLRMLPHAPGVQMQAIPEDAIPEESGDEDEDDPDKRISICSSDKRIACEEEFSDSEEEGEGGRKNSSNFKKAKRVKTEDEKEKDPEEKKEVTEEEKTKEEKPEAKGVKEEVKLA

[22] = target: Histone deacetylase 2 (Homo sapiens, UniProt Q92769); test: Inhibition of human recombinant HDAC2
Sequence of Histone deacetylase 2 (Q92769 whole entry): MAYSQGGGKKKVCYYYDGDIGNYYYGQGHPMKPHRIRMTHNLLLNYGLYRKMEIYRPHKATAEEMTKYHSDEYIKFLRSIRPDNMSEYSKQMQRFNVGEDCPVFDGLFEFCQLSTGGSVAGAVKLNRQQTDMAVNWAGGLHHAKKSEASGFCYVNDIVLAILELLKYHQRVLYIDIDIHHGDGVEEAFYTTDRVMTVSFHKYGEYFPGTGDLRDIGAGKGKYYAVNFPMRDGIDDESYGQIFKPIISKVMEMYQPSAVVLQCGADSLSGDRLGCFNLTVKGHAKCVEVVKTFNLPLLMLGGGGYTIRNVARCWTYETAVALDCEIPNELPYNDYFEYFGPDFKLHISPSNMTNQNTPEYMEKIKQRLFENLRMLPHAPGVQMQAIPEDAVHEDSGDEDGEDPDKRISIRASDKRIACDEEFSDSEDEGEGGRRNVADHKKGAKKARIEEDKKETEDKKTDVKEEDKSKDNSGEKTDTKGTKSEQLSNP

[23] = target: Histone deacetylase 3 (Homo sapiens, UniProt O15379); test: Inhibition of human recombinant HDAC3
Sequence of Histone deacetylase 3 (O15379 whole entry): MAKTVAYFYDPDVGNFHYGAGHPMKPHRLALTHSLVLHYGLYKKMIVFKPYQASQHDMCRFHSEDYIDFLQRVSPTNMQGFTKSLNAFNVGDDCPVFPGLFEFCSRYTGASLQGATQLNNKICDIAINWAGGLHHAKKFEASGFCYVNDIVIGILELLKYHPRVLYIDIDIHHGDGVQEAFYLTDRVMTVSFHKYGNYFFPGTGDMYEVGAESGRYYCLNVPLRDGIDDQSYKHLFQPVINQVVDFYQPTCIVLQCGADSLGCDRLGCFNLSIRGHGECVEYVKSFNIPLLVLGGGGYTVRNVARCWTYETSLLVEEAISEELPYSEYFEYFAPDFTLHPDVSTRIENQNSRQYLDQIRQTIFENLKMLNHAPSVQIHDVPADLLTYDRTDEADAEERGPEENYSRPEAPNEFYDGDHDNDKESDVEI

[24] = system: HCT-116; test: Antiproliferative activity against human HCT-116 cells assessed as reduction in cell viability incubated for 72 hrs by MTT assay; assay type: functional, cell-based; conditions: HCT-116, 72 h
[25] = system: SW-620; test: Antiproliferative activity against human SW620 cells assessed as reduction in cell viability incubated for 72 hrs by MTT assay; assay type: functional, cell-based; conditions: SW-620, 72 h
[26] = system: MDA-MB-231; test: Cytotoxicity against human MDA-MB-231 cells assessed as cell growth inhibition at 10 uM measured after 48 hrs by SRB assay relative to control; assay type: functional; set-up: scale not given: the % may be the effect or the level left
[27] = system: LOX IMVI; test: Cytotoxicity against human LOX IMVI cells assessed as cell growth inhibition at 10 uM measured after 48 hrs by SRB assay relative to control; assay type: functional; set-up: scale not given: the % may be the effect or the level left
[28] = system: SNB-75; test: Cytotoxicity against human SNB-75 cells assessed as cell growth inhibition at 10 uM measured after 48 hrs by SRB assay relative to control; assay type: functional; set-up: scale not given: the % may be the effect or the level left
[29] = system: A549; test: Cytotoxicity against human A549 cells assessed as cell growth inhibition at 10 uM measured after 48 hrs by SRB assay relative to control; assay type: functional; set-up: scale not given: the % may be the effect or the level left
[30] = system: PC-3; test: Cytotoxicity against human PC-3 cells assessed as cell growth inhibition at 10 uM measured after 48 hrs by SRB assay relative to control; assay type: functional; set-up: scale not given: the % may be the effect or the level left
[31] = target: Mitogen-activated protein kinase 3 (Homo sapiens, UniProt P27361); test: Inhibition of ERK1 (unknown origin)
Sequence of Mitogen-activated protein kinase 3 (P27361 whole entry): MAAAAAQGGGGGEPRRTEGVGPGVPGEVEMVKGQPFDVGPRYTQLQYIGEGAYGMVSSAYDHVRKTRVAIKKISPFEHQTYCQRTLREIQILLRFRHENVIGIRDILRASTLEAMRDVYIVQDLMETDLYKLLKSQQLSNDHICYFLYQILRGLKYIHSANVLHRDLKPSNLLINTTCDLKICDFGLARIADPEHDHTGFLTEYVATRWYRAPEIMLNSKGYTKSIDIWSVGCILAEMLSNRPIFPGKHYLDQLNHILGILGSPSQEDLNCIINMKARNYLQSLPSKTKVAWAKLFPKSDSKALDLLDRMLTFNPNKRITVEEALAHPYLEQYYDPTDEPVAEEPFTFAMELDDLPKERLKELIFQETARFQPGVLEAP

[32] = target: Mitogen-activated protein kinase 1 (Homo sapiens, UniProt P28482); test: Inhibition of ERK2 (unknown origin)
Sequence of Mitogen-activated protein kinase 1 (P28482 whole entry): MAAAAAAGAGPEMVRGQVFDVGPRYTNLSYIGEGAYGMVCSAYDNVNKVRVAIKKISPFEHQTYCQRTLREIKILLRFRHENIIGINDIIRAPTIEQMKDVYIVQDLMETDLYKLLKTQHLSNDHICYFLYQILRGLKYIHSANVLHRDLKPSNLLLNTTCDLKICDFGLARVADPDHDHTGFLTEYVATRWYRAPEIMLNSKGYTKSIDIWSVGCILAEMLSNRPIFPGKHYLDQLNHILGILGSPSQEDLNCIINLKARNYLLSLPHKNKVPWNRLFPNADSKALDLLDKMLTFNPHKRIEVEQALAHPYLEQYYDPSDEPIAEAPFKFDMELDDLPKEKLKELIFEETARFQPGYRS

[33] = target: Mitogen-activated protein kinase 6 (Homo sapiens, UniProt Q16659); test: Inhibition of ERK3 (unknown origin)
Sequence of Mitogen-activated protein kinase 6 (Q16659 whole entry): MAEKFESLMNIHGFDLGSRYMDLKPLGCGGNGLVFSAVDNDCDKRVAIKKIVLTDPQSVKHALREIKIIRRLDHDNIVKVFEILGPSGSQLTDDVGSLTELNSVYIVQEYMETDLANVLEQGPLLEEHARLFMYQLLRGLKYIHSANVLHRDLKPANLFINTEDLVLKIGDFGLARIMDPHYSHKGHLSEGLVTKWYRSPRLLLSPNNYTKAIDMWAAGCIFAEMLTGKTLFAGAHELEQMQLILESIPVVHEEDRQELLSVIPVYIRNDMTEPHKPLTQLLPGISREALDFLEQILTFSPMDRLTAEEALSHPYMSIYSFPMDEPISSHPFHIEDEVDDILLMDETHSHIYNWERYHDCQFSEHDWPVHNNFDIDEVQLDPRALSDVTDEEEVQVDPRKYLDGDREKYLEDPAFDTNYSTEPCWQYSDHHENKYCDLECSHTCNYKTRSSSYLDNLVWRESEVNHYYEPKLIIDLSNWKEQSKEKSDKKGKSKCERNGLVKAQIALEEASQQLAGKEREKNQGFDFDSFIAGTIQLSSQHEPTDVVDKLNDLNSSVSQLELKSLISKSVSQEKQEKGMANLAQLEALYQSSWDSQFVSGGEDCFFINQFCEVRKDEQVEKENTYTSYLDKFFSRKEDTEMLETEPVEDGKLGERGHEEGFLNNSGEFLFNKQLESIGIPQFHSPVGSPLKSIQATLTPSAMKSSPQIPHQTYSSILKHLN

[34] = system: AGS; test: Growth inhibition of human AGS cells measured after 48 hrs by SRB assay; assay type: functional

COc1ccc(OCCN2CCn3nnc(-c4cc(C(C)C)c(O)cc4O)c3C2)cc1
IC50 [1]: 2290 nM
IC50 [2]: 4150 nM
IC50 [3]: 5580 nM
IC50 [4]: 6740 nM
IC50 [5]: 10200 nM

S=C(N/N=C(\c1ccccc1)c1ccccn1)Nc1ccccc1
IC50 at 24 h [6]: 1430 nM

CNCc1ccc(-c2cc(-c3nc(-c4ccc(S(=O)(=O)C(C)C)cc4)cnc3N)on2)cc1 [BERZOSERTIB]
IC50 [7]: 19 nM

N/C(=N\N=C\c1ccccc1)c1cnccn1
IC50 [8]: 0.173 µg/mL (≈ 0.768 µM)

COc1cc(OC)c(F)c(/C=C/c2cnc3c(n2)N(S(=O)(=O)c2cn(CCF)cn2)CC3)c1F
IC50 [9]: 600 nM
IC50 [10]: 0.5 nM

c1cn2cc(-c3ccc4ncn(C5CCCCC5)c4c3)nc(-c3ccc4ncn(C5CCCCC5)c4c3)c2n1
IC50 [11]: 810 nM

N=C(NC(=O)c1nc(Cl)c(N)nc1N)NC(=O)c1c(Cl)cccc1Cl
IC50 [12]: 12800 nM

COC(=O)c1sc2nccnc2c1Nc1cc(OC)cc(OC)c1
GI50 [13]: 87000 nM
GI50 [14]: 41000 nM
GI50 [15]: 53000 nM
IC50 at 48 h [16]: 144000 nM

Nc1nc(N2CCCC2CC2CCCC2CO)cnc1-c1cccc(Cl)c1Cl (stereo unspecified)
Activity [17]: 30%
Activity [18]: 32%
Activity [19]: 27%

COc1cnc(C(=O)NCC2(C)CCCC3(C)c4ccc(C(C)C)cc4CCC23)cn1 (stereo unspecified)
IC50 [20]: 6660 nM
IC50 [21]: 130 nM
IC50 [22]: 280 nM
IC50 [23]: 310 nM

O=C(Nc1ccc2ccccc2c1)c1c(Cc2ccccc2)n2nc3ccccc3c2c(=O)n1C1CC1
IC50 [24]: 1300 nM
IC50 [25]: 1800 nM

COc1ccc(-c2cn3c(-c4ccc(OC)cc4)cnc3c(Oc3ccc4c(C)cc(=O)oc4c3)n2)cc1
Activity [26]: 93.71%
Activity [27]: 91.98%
Activity [28]: 85.69%
Activity [29]: 83.52%
Activity [30]: 83.52%

CN1CCN([C@H]2C[C@@H](c3nc(-c4ccc5ccc(-c6ccccc6)nc5c4)c4c(N)nccn43)C2)CC1
IC50 [31]: 210 nM
IC50 [32]: 210 nM
IC50 [33]: 210 nM

COC(=O)c1sc2nccnc2c1Nc1ccc(OC)c(OC)c1
GI50 [34]: 9200 nM
GI50 [13]: 8000 nM
IC50 at 48 h [16]: 53000 nM
